Assay results: BindingDB's records for doi:10.1021/jm7014149 (Vu University Amsterdam, 2008)

Key:
Settings in all cases: pH 7.4; 25 °C
Histamine H4 receptor = Histamine H4 receptor (Homo sapiens, UniProt Q9H3N8); experiment: H4R Radioligand Binding Assay
Procedure: (§1) Ligand displacement assays were performed on CHO cells membranes expressing hH4R. Retained radioactivity was determined by liquid scintillation counting. Nonspecific binding was determined in the presence of 10 uM histamine. The Ki values were calculated based on an experimentally determined appropriate Kd value according to Cheng and Prusoff.

Histamine H3 receptor [1] = target: T1, Histamine H3 receptor (Homo sapiens, UniProt Q9Y5N1); experiment: H3R Radioligand Binding Assay
T1 sequence (Q9Y5N1 whole entry): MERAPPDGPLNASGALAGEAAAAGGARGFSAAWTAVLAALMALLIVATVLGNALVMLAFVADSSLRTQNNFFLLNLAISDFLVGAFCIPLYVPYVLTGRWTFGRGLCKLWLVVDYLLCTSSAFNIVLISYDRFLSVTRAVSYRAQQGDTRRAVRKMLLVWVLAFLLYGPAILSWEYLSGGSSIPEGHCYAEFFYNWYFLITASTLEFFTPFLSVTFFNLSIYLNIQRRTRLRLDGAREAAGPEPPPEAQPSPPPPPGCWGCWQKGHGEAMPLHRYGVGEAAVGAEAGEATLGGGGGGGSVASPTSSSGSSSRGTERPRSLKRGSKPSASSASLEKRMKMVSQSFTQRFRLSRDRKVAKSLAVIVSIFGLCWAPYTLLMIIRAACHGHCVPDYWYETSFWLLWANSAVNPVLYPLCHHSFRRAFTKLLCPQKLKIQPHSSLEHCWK

Histamine H3 receptor [2] = target: T1, Histamine H3 receptor; experiment: Radioligand Binding Assay and Functional [35S]GTP-gamma-S Binding Assay
Procedure: as §1, with “hH3R.” for “hH4R.”, “1” for “10”, “thioperamide.” for “histamine.”, “Prusoff. EC50 is a measure of functional property of compound on [35S]GTP-gamma-S binding to membranes expressing H3R receptors.” for “Prusoff.”

Sequence of Histamine H4 receptor (Q9H3N8 whole entry): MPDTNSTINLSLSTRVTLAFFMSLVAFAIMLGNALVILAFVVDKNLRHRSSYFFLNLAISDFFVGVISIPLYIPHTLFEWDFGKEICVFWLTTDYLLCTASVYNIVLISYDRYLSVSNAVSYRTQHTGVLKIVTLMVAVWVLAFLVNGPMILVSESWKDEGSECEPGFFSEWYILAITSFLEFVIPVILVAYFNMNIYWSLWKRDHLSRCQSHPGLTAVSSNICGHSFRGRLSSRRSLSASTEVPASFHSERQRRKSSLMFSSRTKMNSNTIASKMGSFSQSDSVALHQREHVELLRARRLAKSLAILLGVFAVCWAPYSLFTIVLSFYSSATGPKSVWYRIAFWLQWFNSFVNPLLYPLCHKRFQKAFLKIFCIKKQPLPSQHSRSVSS

| Structure (SMILES) | Ki (Histamine H4 receptor) [nM] | Ki (Histamine H3 receptor [1]) [nM] | Ki (Histamine H3 receptor [2]) [nM] |
| --- | --- | --- | --- |
| CC(C)(C)CC(=O)c1cccc(Cc2cnc[nH]2)c1 [1-[3-(1H-imidazol-4-ylmethyl)phenyl]-3,3-dimethylbutan-1-one] | 6 | – | – |
| CCCC#Cc1cccc(Cc2c[nH]cn2)c1 [4-{[3-(pent-1-yn-1-yl)phenyl]methyl}-1H-imidazole] | – | 3 | – |
| CC(C)(C)C#Cc1cccc(Cc2c[nH]cn2)c1 [4-{[3-(3,3-dimethylbut-1-yn-1-yl)phenyl]methyl}-1H-imidazole] | 6 | – | 4 |
| CC1CC(C)(C)N=C(c2cccc(Cc3c[nH]cn3)c2)O1 (stereo unspecified) [2-[3-(1H-imidazol-4-ylmethyl)phenyl]-4,4,6-trimethyl-5,6-dihydro-4H-1,3-oxazine] | – | – | 1 |
| C(#Cc1cccc(Cc2cnc[nH]2)c1)c1ccccc1 [4-{[3-(2-phenylethynyl)phenyl]methyl}-1H-imidazole] | – | 2 | – |
